One series has as its system HCT-116. Nature of the series: Antiproliferative activity against human HCT-116 cells assessed as cell viability incubated for 48 hrs by MTT assay. To be noted: HCT-116, 48 h.
A further series has as its system Trypanosoma brucei. Kind of series: […] activity against Trypanosoma brucei assessed as […] growth inhibition. The series is classed as functional, organism-based.
The test system of series [1] is Mus musculus. Nature of the series: Anticonvulsant activity in ip dosed mouse assessed as neurotoxicity measured after 15 mins. To be noted: 0.25 h. The series is classed as functional.
Series [2] is described as follows: Protection index, ratio of TD50 for neurotoxicity in ip dosed mouse to ED50 for anticonvulsant activity in ip dosed mouse. It is filed as toxicity, organism-based. As to conditions: in vivo, read-out: Ratio TD50/ED50.
The target in series [3] is T1, Vascular endothelial growth factor receptor 2 (Homo sapiens, UniProt P35968). Nature of the series: Inhibition of human VEGFR2 using biotinylated poly-GluTyr as substrate at 117 ng/ml incubated for 24 hrs in presence of ATP by ELISA assay relative to control. For orientation: An ELISA detects its analyte on a solid surface through an enzyme-linked reagent.
The subject of series [4] is MCF7. Nature of the series: Anticancer activity against human MCF7 cells assessed a cell growth inhibition incubated for 48 hrs by SRB assay. It is filed as functional, cell-based. As to conditions: MCF7, 48 h.
Series [5] concerns A549. Nature of the series: Anticancer activity against human A549 cells assessed as cell growth inhibition incubated for 48 hrs by CCK8 assay. It is filed as functional, cell-based. As to conditions: A549, 48 h. (In general: Formazan colour is commonly taken as a measure of viable cells.)
Series [6] deals with Mus musculus. Nature of the series: Anticonvulsant activity in ip dosed mouse assessed as MES-induced seizures. It is filed as functional.
In series [7] the test system is Mus musculus. Nature of the series: Anticonvulsant activity in ip dosed mouse assessed as protection against PTZ-induced seizure. It is filed as functional.
For the next series, the system named is Rattus norvegicus. Kind of series: Antiinflammatory activity in rat assessed as reduction in xylene induced edema at 10 mg/kg, po by CPE test relative to control. It is filed as functional. Also on record: scale not given: the % may be the effect or the level left.
The test system of series [8] is MCF7. Nature of the series: Antiproliferative activity against human MCF7 cells assessed as cell viability incubated for 48 hrs by MTT assay. The series is classed as functional, cell-based. To be noted: MCF7, 48 h.
In series [9] the test system is Mus musculus. Nature of the series: Anticonvulsant activity in po dosed mouse assessed as MES-induced seizures. It is filed as functional.
The nature of series [10]: Protection index, ratio of TD50 for neurotoxicity in po dosed mouse to ED50 for anticonvulsant activity in ip dosed mouse. It is filed as toxicity, organism-based. As to conditions: in vivo, read-out: Ratio TD50/ED50.
Series [11] has as its system Mycobacterium tuberculosis. Nature of the series: Antimycobacterial activity against Mycobacterium tuberculosis H37Rv by test tube dilution technique. The series is classed as functional.
Series [12] relates to DU-145. Nature of the series: Anticancer activity against human DU-145 cells assessed as cell growth inhibition incubated for 24 hrs by MTS assay. The series is classed as functional, cell-based. To be noted: DU-145, 24 h.
The subject of another series is LNCaP. Kind of series: Anticancer activity against human LNCaP cells assessed as cell growth inhibition incubated for 24 hrs by MTS assay. The series is classed as functional, cell-based.
A further series deals with PC-3. Kind of series: Anticancer activity against human PC-3 cells assessed as cell growth inhibition incubated for 24 hrs by MTS assay. It is filed as functional, cell-based. To be noted: PC-3, 24 h.
In series [13] the test system is Cytomegalovirus. Nature of the series: Antiviral activity against Cytomegalovirus infected in HFF cells […]. The series is classed as functional, organism-based. As to conditions: Human betaherpesvirus 5, HFF.
Series [14] concerns Cytomegalovirus. Kind of series: Potency index, ratio of ganciclovir IC50 to test compound IC50 for antiviral activity against Cytomegalovirus. It is filed as functional.
For another series, the system named is K562. Kind of series: Antiproliferative activity against human K562 cells assessed as cell growth inhibition by MTT assay. It is filed as functional, cell-based.
A further series deals with MDA-MB-231. Kind of series: Antiproliferative activity against human MDA-MB-231 cells assessed as cell growth inhibition by MTT assay. It is filed as functional, cell-based.
Series [15] has as its system A549. Nature of the series: Antiproliferative activity against human A549 cells assessed as cell growth inhibition by MTT assay. It is filed as functional, cell-based.
The test system of series [16] is Middle East respiratory syndrome-related coronavirus. Kind of series: Antiviral activity of Middle East respiratory syndrome coronavirus. The series is classed as functional, organism-based.
In series [17] the target is Hepatocyte growth factor receptor (Homo sapiens, UniProt P08581). Nature of the series: Inhibition of c-Met (unknown origin) incubated for 1 hrs in presence of ATP by ELISA assay.
Series [18] has as its target T1, Vascular endothelial growth factor receptor 2. Kind of series: Inhibition of human VEGFR2 (unknown origin) incubated for 1 hrs in presence of ATP by ELISA assay.
In another series the test system is HepG2. Kind of series: Antiproliferative activity against human HepG2 cells assessed as cell viability incubated for 72 hrs by MTT assay. It is filed as functional, cell-based. To be noted: HepG2, 72 h.
The test system of the next series is SMMC-7721. Nature of the series: Anticancer activity against human SMMC-7721 cells assessed as cell growth inhibition incubated for 48 hrs by CCK8 assay. To be noted: SMMC-7721, 48 h. It is filed as functional, cell-based.
For series [19], the system named is BT-20. Nature of the series: Potency index, ratio of test compound IC50 to cisplatin IC50 for antiproliferative against human BT-20 cells. It is filed as functional.
Series [20] is described as follows: Anticancer activity against human SK-MEL-128 cells assessed as cell growth inhibition incubated for 48 hrs by MTT assay. It is filed as functional, cell-based. As to conditions: SK-MEL-128, 48 h.
The next series has as its system HeLa. Nature of the series: Antiproliferative activity against human HeLa cells assessed as cell growth inhibition by MTT assay. The series is classed as functional, cell-based.
Series [21] deals with A549. Kind of series: Anticancer activity against human A549 cells assessed as cell growth inhibition incubated for 48 hrs by MTT assay. The series is classed as functional, cell-based. To be noted: A549, 48 h.
Series [22] concerns DU-145. Nature of the series: Anticancer activity against human DU-145 cells assessed as cell growth inhibition incubated for 48 hrs by MTT assay. As to conditions: DU-145, 48 h. It is filed as functional, cell-based.
Series [23] deals with BT-20. Kind of series: Anticancer activity against human BT-20 cells assessed as cell growth inhibition incubated for 48 hrs by MTT assay. To be noted: BT-20, 48 h. The series is classed as functional, cell-based.
The species named for series [24] is Mus musculus. Kind of series: Antiseizure activity against ScPTZ-induced seizure in mouse. The series is classed as functional. As to conditions: route sc.
Series [25] is filed under the species Mus musculus. Kind of series: Anticonvulsant activity in mouse assessed as MES-induced seizures measured after 30 mins. It is filed as functional. To be noted: 0.5 h.
A further series has as its system Human alphaherpesvirus 1. Nature of the series: Antiviral activity against Human alphaherpesvirus 1 assessed as plaque reduction at […] relative to control. Further details: dose or concentration left out as unconfirmed. It is filed as functional.

Values after ≈ are worked out from the molar mass of the structure shown.

T1 sequence (P35968 whole entry): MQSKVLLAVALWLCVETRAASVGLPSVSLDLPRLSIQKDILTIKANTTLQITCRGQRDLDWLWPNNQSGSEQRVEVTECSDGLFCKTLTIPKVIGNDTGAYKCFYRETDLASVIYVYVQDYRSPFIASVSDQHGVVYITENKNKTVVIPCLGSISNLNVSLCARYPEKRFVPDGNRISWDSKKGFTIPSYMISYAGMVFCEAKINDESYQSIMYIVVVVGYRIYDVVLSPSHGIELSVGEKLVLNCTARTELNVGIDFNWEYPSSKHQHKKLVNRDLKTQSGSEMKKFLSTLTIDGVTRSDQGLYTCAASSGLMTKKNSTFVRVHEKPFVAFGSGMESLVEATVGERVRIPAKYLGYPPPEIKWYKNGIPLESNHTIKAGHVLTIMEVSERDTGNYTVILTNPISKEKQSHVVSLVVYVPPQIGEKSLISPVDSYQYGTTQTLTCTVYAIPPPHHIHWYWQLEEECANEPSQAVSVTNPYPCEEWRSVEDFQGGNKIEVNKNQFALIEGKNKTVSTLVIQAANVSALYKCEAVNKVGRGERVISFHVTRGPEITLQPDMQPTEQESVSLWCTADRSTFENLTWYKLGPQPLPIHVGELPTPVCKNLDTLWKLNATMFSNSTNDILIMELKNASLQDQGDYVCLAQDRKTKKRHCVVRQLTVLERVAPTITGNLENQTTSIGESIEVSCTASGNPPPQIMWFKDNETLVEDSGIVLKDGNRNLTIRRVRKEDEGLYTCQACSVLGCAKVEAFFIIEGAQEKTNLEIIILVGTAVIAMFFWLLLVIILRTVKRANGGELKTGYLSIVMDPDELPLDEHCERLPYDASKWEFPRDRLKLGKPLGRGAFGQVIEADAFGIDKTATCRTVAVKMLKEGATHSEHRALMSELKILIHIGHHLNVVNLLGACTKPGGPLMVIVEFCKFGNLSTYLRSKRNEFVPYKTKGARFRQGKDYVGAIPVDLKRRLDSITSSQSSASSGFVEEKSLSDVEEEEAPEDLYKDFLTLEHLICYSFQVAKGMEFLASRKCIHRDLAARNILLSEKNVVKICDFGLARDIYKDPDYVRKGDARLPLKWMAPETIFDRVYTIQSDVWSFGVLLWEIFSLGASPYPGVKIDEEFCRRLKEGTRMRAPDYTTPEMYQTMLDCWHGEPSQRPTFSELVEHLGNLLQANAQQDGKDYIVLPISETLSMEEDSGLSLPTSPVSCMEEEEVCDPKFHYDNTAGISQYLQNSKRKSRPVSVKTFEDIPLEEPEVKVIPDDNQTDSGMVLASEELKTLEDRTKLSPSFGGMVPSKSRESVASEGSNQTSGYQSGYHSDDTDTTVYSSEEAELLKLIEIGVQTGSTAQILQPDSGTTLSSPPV
Chain of Hepatocyte growth factor receptor (P08581 whole entry): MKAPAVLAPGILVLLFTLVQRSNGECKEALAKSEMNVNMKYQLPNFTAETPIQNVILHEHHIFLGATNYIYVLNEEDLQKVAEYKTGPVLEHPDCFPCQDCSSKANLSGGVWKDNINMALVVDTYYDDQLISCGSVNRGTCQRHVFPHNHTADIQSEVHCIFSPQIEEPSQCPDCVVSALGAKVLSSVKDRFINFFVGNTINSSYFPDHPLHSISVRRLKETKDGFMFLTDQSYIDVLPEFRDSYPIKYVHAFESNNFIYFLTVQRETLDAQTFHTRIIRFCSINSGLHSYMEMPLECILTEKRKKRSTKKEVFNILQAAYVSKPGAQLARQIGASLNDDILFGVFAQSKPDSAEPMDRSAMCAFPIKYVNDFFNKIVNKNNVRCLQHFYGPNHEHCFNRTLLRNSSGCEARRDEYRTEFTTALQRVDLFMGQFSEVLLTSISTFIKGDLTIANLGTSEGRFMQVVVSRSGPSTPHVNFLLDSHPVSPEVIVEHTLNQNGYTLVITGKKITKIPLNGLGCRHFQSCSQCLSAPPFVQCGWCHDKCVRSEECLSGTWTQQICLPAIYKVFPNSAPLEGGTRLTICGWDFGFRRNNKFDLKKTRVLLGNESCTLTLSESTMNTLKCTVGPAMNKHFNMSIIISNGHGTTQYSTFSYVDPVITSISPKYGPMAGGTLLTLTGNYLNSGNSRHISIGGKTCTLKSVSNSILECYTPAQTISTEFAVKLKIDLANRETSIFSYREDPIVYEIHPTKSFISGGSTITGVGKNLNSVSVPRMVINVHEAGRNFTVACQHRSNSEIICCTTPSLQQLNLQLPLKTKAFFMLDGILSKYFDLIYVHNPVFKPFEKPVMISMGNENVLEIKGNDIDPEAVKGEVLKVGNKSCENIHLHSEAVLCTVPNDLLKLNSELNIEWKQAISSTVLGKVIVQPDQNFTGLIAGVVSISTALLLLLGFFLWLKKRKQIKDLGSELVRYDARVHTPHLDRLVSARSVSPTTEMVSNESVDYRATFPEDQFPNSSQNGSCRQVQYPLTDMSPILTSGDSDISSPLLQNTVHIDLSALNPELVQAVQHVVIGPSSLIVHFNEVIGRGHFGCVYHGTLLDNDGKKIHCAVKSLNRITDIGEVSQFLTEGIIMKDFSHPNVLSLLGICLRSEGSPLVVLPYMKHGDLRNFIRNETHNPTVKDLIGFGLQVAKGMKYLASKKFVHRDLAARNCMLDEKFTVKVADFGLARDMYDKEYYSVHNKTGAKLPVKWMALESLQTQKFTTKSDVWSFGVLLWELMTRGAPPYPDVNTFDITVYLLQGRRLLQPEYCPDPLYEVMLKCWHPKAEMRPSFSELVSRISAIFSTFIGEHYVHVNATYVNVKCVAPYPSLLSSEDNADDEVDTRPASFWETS

A word on the IC50: it is the point on the concentration scale where inhibition reaches its midpoint. For `CSc1nc(NC(=S)NCc2ccccc2)n(-c2ccc(C(=O)O)cc2)n1`, the IC50 with HCT-116 was 15600 nM.

As usually defined, the EC50 is the concentration giving half of the maximal effect. Take `Cc1nc(C)c(C(=O)Nc2ccc(F)c(-c3nc4ncc(C(C)(C)C)cn4n3)c2)o1`: the concentration for a half-maximal effect (EC50) in the series with Trypanosoma brucei amounted to 30 nM.

For orientation: TD50 means the dose at which the toxic effect under study appears in half of the subjects. For the compound `Fc1ccc(-n2c(-c3cccc(Cl)c3)n[nH]c2=S)cc1`, the TD50 in the series with Mus musculus [1] was 137 mg/kg. The selectivity ratio in [2] amounted to 3.9.

Usually inhibition stands for the share of the control response that was lost under treatment. Turning to `O=c1nc2c3c(ncn2[nH]1)Oc1c(c(=O)oc2ccccc12)C3c1ccc(F)cc1` (configuration not stated), the inhibition in [3] was 94%. The compound further yielded an IC50 with MCF7 [4] of 7.9 µg/mL (≈ 19.6 µM).

With `CCCCSSc1nnc(-c2ccccc2)n1N`, the IC50 in the series with A549 [5] came out at 2790 nM.

For orientation: ED50 means the midpoint of the dose-response relation. For the compound `Fc1ccc(-c2csc3nncn23)cc1`, the ED50 in the series on Mus musculus [6] and with Mus musculus [7] was 49.1 mg/kg in each case. Moreover, the selectivity ratio in [2] was found to be 1.7.

On to `Fc1cc(F)cc(-c2nn3c(CN4c5ccccc5Sc5ccccc54)nnc3s2)c1`, for which the Activity with Rattus norvegicus was 82.24%.

In the case of `O=C(O)c1ccc(-n2nc(Oc3ccccc3)nc2NC(=S)NC(=O)c2ccccc2)cc1`, the IC50 in the series on MCF7 [8] was determined as 23900 nM.

As to `O=c1c2ccccc2n2cnnc2n1-c1ccc(Cl)cc1`, in the series on Mus musculus [9], the ED50 was 88 mg/kg. In addition, in series [10], the selectivity ratio was more than 25.5.

The term MIC denotes the smallest concentration in the dilution series that meets the test's criterion for growth inhibition. In series [11], `c1cncc(-c2nn3c(COc4cnccn4)nnc3s2)c1` gave an MIC of 0.4 µg/mL (≈ 1.28 µM).

Take `COc1ccc2cc(C(C)c3nnc(SCC(=O)N/N=C/c4cc([N+](=O)[O-])ccc4-c4ccco4)n3-c3ccc(F)cc3)ccc2c1` (configuration not stated): the IC50 stood at 34500 nM with DU-145 [12], 48800 nM in the series on LNCaP and 26000 nM in the series on PC-3.

In the series on Cytomegalovirus [13], `Nc1nc2c(ncn2COC(CO)CO)c(=O)[nH]1` [GANCICLOVIR] came in with an IC50 of 590 nM. Further, the “Ratio IC50” value with Cytomegalovirus [14] is more than 256.

On to `Cc1nn(-c2ccc(Br)cc2)c(=O)n1-n1c(-c2cc3ccccc3oc2=O)cs/c1=N\c1ccc(Cl)cc1`, for which the IC50 with K562, in the series on MDA-MB-231 and in the series on A549 [15] was 0.16 µg/mL (≈ 0.264 µM) each time.

In [16], `Sc1nnc(NNc2ccc(Cl)cc2)n1NC1C=CCC1` (configuration not stated) came in with an IC50 of 510 nM.

With `Cc1c(C(=O)Nc2ccc(Oc3ccnc(-c4nncn4CN4CCN(C)CC4)c3)c(F)c2)c(=O)n(-c2ccccc2)n1C`, the IC50 in [17] came out at 110 nM; in series [18], 190 nM.

`CCc1nnc2c(Nc3ccc(C(=O)/C=C/c4cc(OC)c(OC)c(OC)c4)cc3)nc3ccccc3n12`: the half-inhibitory concentration (IC50) in the series on HepG2 stood at 8580 nM.

As for `CC(C)SSc1nnc(-c2ccccc2)n1N`, the IC50 in the series on SMMC-7721 amounted to 2970 nM.

Regarding `CCN(CC)c1ccc2cc(C(=O)NNC(=O)Cn3nc(Cc4cccc(Br)c4)n(N)c3=O)c(=O)oc2c1`, in the series on BT-20 [19], the “Ratio IC50” value was 2.7. Besides, the IC50 in [20] is 3.1 µg/mL (≈ 5.3 µM); in the series on HeLa, 0.16 µg/mL (≈ 0.274 µM); in the series with A549 [21] it was 3.1 µg/mL (≈ 5.3 µM); with DU-145 [22] it was 3.1 µg/mL (≈ 5.3 µM); in the series with BT-20 [23], 3.1 µg/mL (≈ 5.3 µM).

On to `O=C(CSc1nc[nH]n1)Nc1nc2ccc(OCc3ccc(F)cc3)cc2s1`, for which the ED50 turned out to be 52.8 mg/kg in the series listed under Mus musculus [24] and 54.8 mg/kg in the series listed under Mus musculus [25].

`Cc1ccc2nc(Cl)c3nnc(NC(=S)Nc4ccccc4)n3c2c1`: the Activity with Human alphaherpesvirus 1 came out at 25%.

These data come from ChEMBL document CHEMBL5244255, “An insight on medicinal attributes of 1,2,4-triazoles” (Eur J Med Chem, 2020).
